Measurements from US20060074243A1, “Hydroxamic acid and amide compounds and their use as protease inhibitors” (Pharmacia Corporation, priority 2002, published 2006).

Key:
Test in all cases: In vitro MMP inhibition analysis (fluorogenic peptide substrate cleavage), Ki
Assay type in all cases: biochemical
Settings in all cases: Table 1
Human recombinant MMP-1 = target: T1, Human recombinant MMP-1 (Homo sapiens, UniProt P03956)
T1 construct: made in house; host or cells: MMP-1-transfected HT-1080 cells (spent media)
T1 sequence (P03956 100-469): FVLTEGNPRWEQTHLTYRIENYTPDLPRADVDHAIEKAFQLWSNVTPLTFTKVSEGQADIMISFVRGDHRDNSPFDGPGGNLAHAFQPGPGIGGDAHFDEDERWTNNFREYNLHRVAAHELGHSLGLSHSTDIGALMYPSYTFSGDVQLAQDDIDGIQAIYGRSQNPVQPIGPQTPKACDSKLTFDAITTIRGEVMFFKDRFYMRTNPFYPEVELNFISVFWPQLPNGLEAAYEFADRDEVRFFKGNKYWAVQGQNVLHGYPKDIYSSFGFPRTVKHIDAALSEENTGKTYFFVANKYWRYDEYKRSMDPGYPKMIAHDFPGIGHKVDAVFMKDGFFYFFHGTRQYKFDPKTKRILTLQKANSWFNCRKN
Description: (§1) Several compounds and salts were analyzed in an in vitro assay to determine their ability to inhibit the MMP cleavage of peptide substrates. Inhibition constant (Ki) were calculated from the assayed compound-MMP interactions.
(§2) Human recombinant MMP-1, MMP-2, MMP-9, MMP-13, and MMP-14 were used in this assay. All enzymes were prepared in Assignee's laboratories following usual laboratory procedures. Protocols for the preparation and use of these enzymes are available in the scientific literature. See, e.g., Enzyme Nomenclature (Academic Press, San Diego, Calif., 1992) (and the citations therein). See also, Frije et al., J. Biol. Chem., 26(24), 16766-73 (1994).
The MMP-1 proenzyme was purified from the spent media of MMP-1-transfected HT-1080 cells provided by Dr. Harold Welgus of Washington University (St. Louis, Mo.). The protein was purified on a zinc chelating column.
(§3) All MMPs were activated using 4-aminophenylmercuric acetate (“APMA”, Sigma Chemical, St. Louis, Mo.) or trypsin. MMP-9 also was activated using human recombinant MMP-3 (purified in Assignee's laboratory following standard cloning and purification techniques).
(§4) The following fluorogenic, methoxycoumarin-containing polypeptide substrate (I) was used in the MMP inhibition assays: MCA-ArgProLeuGlyLeuDpaAlaArgGluArgNH2 (I) “MCA” is 7-methoxycoumarin-4-yl acetyl. Substrate (I) was prepared Assignee's laboratory. In the absence of MMP inhibitory activity, the substrate is cleaved at the Gly-Leu peptide bond. This cleavage separates the highly fluorogenic peptide from the 2,4-dinitrophenyl quencher, thus resulting in increase of fluorescent intensity.
(§5) The stock solutions of the assayed compounds and salts were prepared in […] (DMSO). These stock solutions were diluted in Buffer A (100 mM Tris-HCl, 100 mM NaCl, 10 mM CaCl2, 0.05% polyoxyethylene 23 lauryl ether, pH 7.5) to obtain solutions with different compound concentrations, i.e., assay solutions with different concentrations of the assayed […] compound. The experiment controls contained the same amount of Buffer A/DMSO as the assayed sample, but contained none of the tested compound or salt.
(§6) The assays from which the Ki determinations were made were performed as follows. The assayed compound samples were incubated in separate wells of untreated white polystyrene plates (Nunc Nalgene International, Rochester, N.Y.), and analyzed on a Tecan SpectraFlour Plus plate reader. The excitation wavelength was 330 nm, and the emission wavelength—420 nm. All samples (assayed compounds and controls) were incubated in separate plate wells at room temperature for 1 hr in the presence of 4 μM of MMP substrate (I). In the absence of MMP inhibitory activity, substrate (I) was cleaved at the Gly-Leu bond resulting in an increase of relative fluorescence. Inhibition was observed as a reduced rate of this increase in relative fluorescence. […] This protocol is a modification of method by Knight et al., FEBS Lett., 296(3), 263-266 (1992). Apparent inhibitory constants were determined by non-linear regression of reaction velocity as a function of inhibitor and enzyme concentration using Morrison's equation, as described by Kuzmic, Anal. Biochem. 286, 45-50 (2000). Modifications were made in the non-linear regression method to allow a common control reaction rate and effective enzyme concentration to be shared between all dose-response relationships on a given assay plate. Since the substrate concentration was chosen to be at or below the Km, the apparent Ki's from this analysis were reported as Ki's without correction for the influence of substrate.
(§7) The above protocols were used to determine Ki constants for the compounds in Examples 2-35 above. All Ki values in Table 1 are given in nM units.

Human recombinant MMP-2 = target: T2, Human recombinant MMP-2 (Homo sapiens, UniProt P08253)
T2 construct: made in house; host or cells: MMP-2-transfected p2AHT2 cells
T2 sequence (P08253 110-660): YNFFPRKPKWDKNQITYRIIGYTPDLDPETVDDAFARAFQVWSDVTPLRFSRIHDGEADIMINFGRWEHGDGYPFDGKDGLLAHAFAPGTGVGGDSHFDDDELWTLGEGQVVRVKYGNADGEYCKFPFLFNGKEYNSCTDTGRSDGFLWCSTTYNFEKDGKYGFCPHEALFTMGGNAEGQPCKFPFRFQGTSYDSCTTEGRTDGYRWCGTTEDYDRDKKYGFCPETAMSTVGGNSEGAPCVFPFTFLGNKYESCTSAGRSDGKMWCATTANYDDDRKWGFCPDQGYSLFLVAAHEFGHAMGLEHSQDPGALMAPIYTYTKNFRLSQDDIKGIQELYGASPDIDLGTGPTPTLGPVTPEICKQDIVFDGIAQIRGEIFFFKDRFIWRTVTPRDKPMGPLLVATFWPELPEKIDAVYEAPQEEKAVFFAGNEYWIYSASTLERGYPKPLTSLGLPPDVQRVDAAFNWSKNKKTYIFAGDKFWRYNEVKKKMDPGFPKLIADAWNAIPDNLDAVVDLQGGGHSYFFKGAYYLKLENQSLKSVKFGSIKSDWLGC
Description: as §1, §2
The MMP-2 proenzyme was purified by gelatin Sepharose chromatography from MMP-2-transfected p2AHT2 cells provided by Dr. Gregory Goldberg of Washington University (St. Louis, Mo.).
as §3, §4, §5, §6, §7

Human recombinant MMP-9 = target: T3, Human recombinant MMP-9 (Homo sapiens, UniProt P14780)
T3 construct: made in house; host or cells: MMP-9-transfected HT1080 cells (spent media)
Description: as §1, §2
The MMP-9 proenzyme was purified by gelatin Sepharose chromatography from spent media of MMP-9-transfected HT1080 cells provided by Dr. Howard Welgus of Washington University (St. Louis, Mo.).
as §3, §4, §5, §6, §7

Human recombinant MMP-14 = target: T4, Human recombinant MMP-14 (Homo sapiens, UniProt P50281)
T4 construct: The catalytic domain enzyme was expressed in E. coli inclusion bodies, solubilized in urea; made in house
Description: as §1, §2
The MMP-14 full length cDNA was provided by Dr. Gregory Goldberg of Washington University (St. Louis, Mo.). The catalytic domain enzyme was expressed in E. coli inclusion bodies, solubilized in urea, purified on a preparative […] reverse phase HPLC column, and then refolded in the presence of zinc acetate and purified for use.
as §3, §4, §5, §6, §7

T3 sequence (P14780 107-707 limits assumed): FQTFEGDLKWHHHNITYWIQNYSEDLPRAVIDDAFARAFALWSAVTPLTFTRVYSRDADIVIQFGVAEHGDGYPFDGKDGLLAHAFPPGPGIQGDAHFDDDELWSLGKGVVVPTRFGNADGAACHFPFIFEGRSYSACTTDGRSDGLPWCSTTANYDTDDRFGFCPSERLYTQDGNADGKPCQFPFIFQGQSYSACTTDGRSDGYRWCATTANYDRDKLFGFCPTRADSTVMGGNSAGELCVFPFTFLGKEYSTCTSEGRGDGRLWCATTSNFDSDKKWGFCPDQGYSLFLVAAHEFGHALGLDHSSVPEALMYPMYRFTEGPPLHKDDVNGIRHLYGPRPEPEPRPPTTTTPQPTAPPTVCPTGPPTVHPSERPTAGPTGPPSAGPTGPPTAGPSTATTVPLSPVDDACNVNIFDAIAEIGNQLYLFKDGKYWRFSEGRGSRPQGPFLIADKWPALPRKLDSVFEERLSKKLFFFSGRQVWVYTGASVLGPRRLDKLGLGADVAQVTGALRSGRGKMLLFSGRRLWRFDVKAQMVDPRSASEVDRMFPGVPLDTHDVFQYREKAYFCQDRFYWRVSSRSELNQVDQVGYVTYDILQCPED

SMILES | Ki (Human recombinant MMP-1) [nM] | Ki (Human recombinant MMP-2) [nM] | Ki (Human recombinant MMP-9) [nM] | Ki (Human recombinant MMP-14) [nM]
O=C(NO)C1(S(=O)(=O)c2ccc(-c3cnc(CCC4CC4)cn3)cc2)CCOCC1 [Example 49] | > 10000 | 2.36 | 0.88 | 3620
O=C(NO)C1(S(=O)(=O)c2ccc(-c3ccc(CCC(F)(F)C(F)(F)F)cn3)cc2)CCN(C2CC2)CC1 [Example 50] | 7880 | 0.19 | 0.22 | 1190
O=C(NO)C1(S(=O)(=O)c2ccc(-c3ccc(CCCC(F)(F)F)cn3)cc2)CCN(C2CC2)CC1 [Example 51] | 9600 | 0.16 | 0.22 | 1890
CCN1CCC(C(=O)NO)(S(=O)(=O)c2ccc(-c3ccc(CCC(F)(F)C(F)(F)F)cn3)cc2)CC1 [Example 52] | > 10000 | 0.21 | 0.58 | 2580
CCN1CCC(C(=O)NO)(S(=O)(=O)c2ccc(-c3ccc(CCCC(F)(F)F)cn3)cc2)CC1 [Example 53] | > 10000 | 0.46 | 1 | 3960
COCCN1CCC(C(=O)NO)(S(=O)(=O)c2ccc(-c3ccc(CCCC(F)(F)F)cn3)cc2)CC1 [Example 54] | 6370 | 0.12 | 0.25 | 1110
O=C(NO)C1(S(=O)(=O)c2ccc(-c3cnc(CCC(F)(F)C(F)(F)F)cn3)cc2)CCOCC1 [Example 55] | > 10000 | 0.586 | 0.347 | 2560
O=C(NO)C1(S(=O)(=O)c2ccc(-c3ccc(CCCC(F)F)cc3)cc2)CCOCC1 [Example 57] | 2120 | 0.15 | 0.38 | 453
O=C(NO)C1(S(=O)(=O)c2ccc(-c3cnc(CCCC(F)(F)F)cn3)cc2)CCOCC1 [Example 58] | > 10000 | 2.02 | 1.67 | > 10000
CC(F)(F)CCc1ccc(-c2ccc(S(=O)(=O)C3(C(=O)NO)CCN(C4CC4)CC3)cc2)cc1 [Example 59] | 2170 | 0.11 | 0.16 | 390
CC(F)(F)CCc1cnc(-c2ccc(S(=O)(=O)C3(C(=O)NO)CCOCC3)cc2)cn1 [Example 60] | > 10000 | 0.463 | 0.623 | 1880
CCN1CCC(C(=O)NO)(S(=O)(=O)c2ccc(-c3ccc(CCC(C)(F)F)cc3)cc2)CC1 [Example 61] | 3040 | 0.11 | 0.26 | 570
O=C(NO)C1(S(=O)(=O)c2ccc(-c3cnc(CCC(F)(F)F)cn3)cc2)CCOCC1 [Example 62] | > 10000 | 0.88 | 1.83 | 2930
